Where “and” joins values, the source holds several entries; their conditions need not be identical. Identical values can stand only once.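 How tested: cells in 96-well plates exposed to compound for 48 hours at five concentrations. GI50 is the concentration that inhibits growth by half. TGI marks complete inhibition of growth.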
Experiments:
Assay in all cases: inhibition of tumour cell growth, NCI panel, 48 h
SF-295 CNS = system: SF-295 CNS
RPMI-8226 leukemia = system: RPMI-8226 leukemia
SNB-75 CNS = system: SNB-75 CNS
SK-MEL-28 melanoma = system: SK-MEL-28 melanoma
CCRF-CEM leukemia = system: CCRF-CEM leukemia
786-0 renal = system: 786-0 renal
NCI-H226 lung = system: NCI-H226 lung
A549 NSCLC = system: A549 NSCLC
OVCAR-4 ovarian = system: OVCAR-4 ovarian
MDA-MB-231 breast = system: MDA-MB-231 breast

SMILES | GI50 (SF-295 CNS) | TGI (SF-295 CNS) [µM] | GI50 (RPMI-8226 leukemia) | TGI (RPMI-8226 leukemia) | GI50 (SNB-75 CNS) [µM] | TGI (SNB-75 CNS) [µM] | GI50 (SK-MEL-28 melanoma) | TGI (SK-MEL-28 melanoma) | GI50 (CCRF-CEM leukemia) | TGI (CCRF-CEM leukemia) [µM] | GI50 (786-0 renal) | TGI (786-0 renal) [µM] | GI50 (NCI-H226 lung) | TGI (NCI-H226 lung) | GI50 (A549 NSCLC) | TGI (A549 NSCLC) | GI50 (OVCAR-4 ovarian) | TGI (OVCAR-4 ovarian) [µM] | GI50 (MDA-MB-231 breast) | TGI (MDA-MB-231 breast)
O=C(/C=C/c1cccnc1)c1ccccc1 | 14.3 µM | 29.3 | 2.46 µM | 6.24 µM | 15.6 | 34.6 | 13.1 µM | 25.8 µM | 3.2 µM | 9.91 | 7.9 µM | 21.4 | 14.6 µM | 28.1 µM | 17.2 µM | 34.2 µM | 13 µM | 26.5 | 12.9 µM | 28.3 µM
CC[C@@]1(O)C(=O)OCc2c1cc1n(c2=O)Cc2cc3c(OC)cccc3nc2-1 | 0.00186 µM | 2.65 | – | 1.81 µM | 0.00687 | 2.06 | 1.72 µM | > 28.1 µM | 0.00022 µM | – | 0.00394 µM | 1.13 | 0.00806 µM | 0.078 µM and 0.445 µM | – | 7.59 µM | – | 11.9 | – | > 100 µM
CC[n+]1c(/C=C/c2ccc(N3CCCC3)cc2)cccc1/C=C/c1ccc(N2CCCC2)cc1 | 0.263 µM | 1.9 | 0.0072 µM and 0.0149 µM | 0.131 µM and 0.261 µM | 0.16 | 0.88 | 0.194 µM and 0.169 µM | 0.374 µM and 0.321 µM | – | – | 0.247 µM | 1.2 | 0.146 µM | 1.49 µM | 0.296 µM and 0.26 µM | 1.65 µM and 0.919 µM | 0.0386 µM | 1.29 | 0.264 µM and 0.268 µM | 1.29 µM and 1.11 µM
O=C(CSc1nc2ccc([N+](=O)[O-])cc2[nH]1)Nc1ccc([N+](=O)[O-])cc1 | 2.03 µM | 6.43 | 1.27 µM | > 23.2 µM | 1.84 | 6.95 | 2.82 µM | 14.2 µM | 2.48 µM | > 100 | 3.02 µM | 13.5 | 2 µM | 7.88 µM | 2.94 µM | 14.2 µM | 1.92 µM | 29.3 | 2.08 µM | 6.31 µM
CCOC(=O)c1c2c(n(Cc3ccccc3)c1C)-c1nc[nH]c1C(=O)C2=O | 15.3 µM | 30.9 | 1.1 µM | 10.7 µM | 4.13 | 16.2 | 19.3 µM | 34.1 µM | 1.57 µM | 7.87 | 18.1 µM | 32.1 | 20.9 µM | 47.2 µM | 11.8 µM | 25.9 µM | 13.5 µM | 26.3 | 13.1 µM | 28.3 µM
O=C1NC(=N[C@@H]2C[C@H]2c2ccccc2)S/C1=C\c1ccc2ncccc2c1 | 1.29 µM | > 12.8 | 1.28 µM | 7.52 µM | 1.02 | 5.17 | 4.46 µM | > 18 µM | 1.31 µM | > 25 | 2.27 µM | 6.01 | 3.18 µM | 10.2 µM | 0.976 µM | 6.71 µM | 0.854 µM | 6.71 | 5.02 µM | 22.4 µM
Cc1cccc2c1NC(=O)[C@@H](NC(=O)[C@H](CCC(F)(F)F)[C@H](CCC(F)(F)F)C(N)=O)N=C2c1cccc(F)c1 | 25.8 µM | > 100 | > 100 µM | > 100 µM | 10.8 | 32.1 | > 100 µM | > 100 µM | > 100 µM | > 100 | 20.6 µM | 56.3 | 17 µM | 73.4 µM | 36.6 µM | > 100 µM | 22.4 µM | 61.9 | 18.2 µM | 59.1 µM
COc1cc2cc(Oc3ccc(NC(=O)Nc4ccc(F)c(C(F)(F)F)c4)cc3)c(C)nc2cc1OCCN1CCOCC1 | 1.35 µM | 4.22 | 1.12 µM | 4.25 µM | 1.96 | 7.45 | 1.62 µM | 3.13 µM | 1.72 µM | 11.5 | 1.73 µM | 3.44 | 2.55 µM | 13.2 µM | 2.57 µM | 34.3 µM | 0.706 µM | 5.23 | 2.83 µM | 9.02 µM
CCOC(=O)Nc1ccc2c3c(cccc13)-c1ccccc1-2 | 2.82 µM | 7.87 | 5.51 µM | > 100 µM | 8.97 | > 100 | 10.7 µM | > 100 µM | 7.85 µM | > 100 | 8 µM | > 100 | > 100 µM | > 100 µM | 6.03 µM | > 100 µM | > 100 µM | > 100 | 2.58 µM | > 100 µM
COc1c(O)cc2c(c1CC=C(C)C)OC(=O)c1c(cc(O)c(CC=C(C)C)c1O)O2 | 4.32 µM | 8.13 | 5.95 µM | 15.7 µM | 3.09 | 6.45 | 4.76 µM | 9.52 µM | 7.63 µM | 25 | 4.59 µM | 8.47 | 4.51 µM | 8.86 µM | 4.26 µM | 8.28 µM | 4.04 µM | 7.61 | 4.23 µM | 8.46 µM
O=C(O)c1cc(C(=O)C(=O)c2cc(C(=O)O)c(O)c3ccccc23)c2ccccc2c1O | – | > 100 | – | > 100 µM | – | > 100 | – | > 100 µM | – | – | – | > 100 | – | > 100 µM | – | > 100 µM | – | > 100 | – | > 100 µM
CC12OC(C(=O)C13CC3)C1C(=O)c3cccc(O)c3C(=O)C12 (stereo not given) | 2.68 µM | 22.6 | 2.22 µM | > 100 µM | 12.5 | > 37.4 | 23.1 µM | > 61.4 µM | – | – | 6.45 µM | 19.2 | 22.9 µM | 78.5 µM | 28.7 µM | > 100 µM | 3.16 µM | 12 | 2.43 µM | 16.3 µM
OC1CCC(COC(c2ccccc2)(c2ccccc2)c2ccccc2)O1 (stereo not given) | – | 31.8 | – | 40.7 µM | – | 26.5 | – | 33.4 µM | – | 35.8 | – | 35.2 | – | 45.4 µM | – | 37 µM | – | – | – | 32.1 µM
COC(=O)CC12CC(NC(=O)c3csc([C@@H](C[C@H](C(C)C)N(C)C(=O)[C@@H](NC(=O)[C@H]4CCCCN4C)C(C)C)OC(C)=O)n3)(C1)C2 | 0.00327 µM and 0.00942 µM | > 33.3 | 0.00351 µM and 0.0129 µM | > 33.3 µM | 0.00265 | – | – | – | 0.0036 µM and 0.00718 µM | > 33.3 | 0.00606 µM and 0.014 µM | > 33.3 | 0.00492 µM and 0.0217 µM | – | 0.00777 µM and 0.013 µM | > 33.3 µM | 0.455 µM and 0.326 µM | > 33.3 | 0.00661 µM and 0.0152 µM | 0.0958 µM and 0.515 µM
